{
  "source": "patent US6900194B1",
  "about": "“Use of substituted 4-biarylbutyric and 5-biarylpentanoic acid derivatives as matrix metalloprotease inhibitors for the treatment of respiratory diseases” (Bayer Aktiengesellschaft, priority 1998, dated 2005)",
  "key": {"[1]": {"target": "T1, MMP-12 (Macrophage Elastase) (Homo sapiens, UniProt P39900)", "T1 construct": "made in house; host or cells: E. coli BL21 (DE3)", "T1 sequence (P39900 106-470)": "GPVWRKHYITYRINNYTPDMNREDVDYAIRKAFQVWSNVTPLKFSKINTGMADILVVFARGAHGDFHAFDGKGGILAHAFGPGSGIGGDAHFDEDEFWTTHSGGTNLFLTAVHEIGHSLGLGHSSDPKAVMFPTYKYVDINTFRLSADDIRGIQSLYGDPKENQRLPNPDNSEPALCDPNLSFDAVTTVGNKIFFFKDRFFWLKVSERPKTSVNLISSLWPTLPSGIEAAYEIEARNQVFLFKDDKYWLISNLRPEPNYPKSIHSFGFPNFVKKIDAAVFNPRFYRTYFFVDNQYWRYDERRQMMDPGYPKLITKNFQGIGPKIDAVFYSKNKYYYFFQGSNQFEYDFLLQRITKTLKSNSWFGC", "test": "P218 quenched fluorescence assay, MMP-12", "format": "biochemical", "conditions": "human; read-out: Potency Ki vs. MMP-12", "description": "(§1) P218 Quenched Fluorescence Assay for MMP Inhibition:\n(§2) This assay is adapted from the one described by Knight et al., FEBS Letters, 296, 263-266 (1992) for MMP-3 and a related substrate. The rate of hydrolysis of the synthetic substrate H-MCA-Pro-Lys-Pro-Leu-Ala-Leu-DPA-Ala-Arg-NH2 (P218) by the respective MMPs is monitored fluorometrically, using an excitation wavelength of 340 nm and an emission wavelength of 395 nm, in the presence or absence of the test compounds. The substrate is made up initially in 100% DMSO to a concentration of 1×10^−2 M, then diluted in assay buffer to a final concentration of 20 μM. Test compounds (10 mM in DMSO) are diluted in assay buffer at an initial concentration of 0.3-1000 nM. These are diluted to a final concentration in the assay from 0.03 nM to 100 nM. The reaction is initiated by the addition of substrate at a final concentration of 20 μM. The total assay volume in a 96 well microtitre plate is 150 μl, Cleavage of the substrate between the Leu-Ala residues allows the fluorescence of the MCA group to be detected on a fluorometer (Cytofluor II) following excitation at 340 nm and emission at 395 nm. Change in fluorescence is continually monitored for a 40 min period.\n(§3) The Ki's are calculated using the method described by Williams and Morrison, Methods in Enzymology, 63, 437-467 (1979) to measure Ki apparent for tight binding inhibitors, and is summarised as follows: [I]0/(1−vi/v0)=Ki apparent ×vi/v0+[E]0 [I]0 and [E]0 are inhibitor and enzyme concentrations, and vi/v0 are reaction velocities with/without inhibitor. [I]0 is equal to IC50 when vi is half v0, so that: IC50=0.5×[E]0+Ki apparent\nIC50's are determined at each enzyme concentration using Xlfit software. Ki apparent is then determined graphically from the plot of IC50 versus MMP concentration, using the intercepts to estimate Ki apparent. Thus, intercept values at IC50=0 and [E]0=0 are equal to −2×Ki apparent and Ki apparent, respectively. IC50 values are calculated using % inhibition values at each enzyme concentration, ensuring data is taken from the linear part of the reaction rate curves. The Ki can then be calculated from the equation: Ki=Ki apparent/[…] where S=substrate concentration and Km=dissociation constant.\nThe assay conditions are modified as follows for each of the MMPs used:\nMMP-12 (Macrophage Elastase)\n[…] is isolated according to the following procedure: Human GenePool cDNA libraries from human lung, spleen, and brain were obtained from Invitrogen (Groningen, The Netherlands). HPLC-purified oligonucleotides were purchased from BioTez (Berlin, Germany), E. coli strain DH5α from Life Technologies (Heidelberg, Germany), strain BL21(DE3) from Novagen (Heidelberg, Germany). Pfu DNA-Polymerase and pBlueScriptII-KS(+) were from Stratagene (Heidelberg, Germany). DNA plasmid and DANN gel isolation kits were purchased from Qiagen (Hilden, Germany). All restriction enzymes and DNA modifying enzymes were ordered from New England Biolabs (Schwalbach, Germany). HiTrapQ (5 ml) was from Pharmacia Biotech (Freiburg, Germany). Vydac C4-RP HPLC columns (214TP54: 300 Å, 5 μm, 4.6×250 mm; 214TP1022: 300 Å, 10 μm, 22×250 mm) were from Promochem (Wesel, Germany). Fluorogenic substrate P218 was purchased from Polypeptide Laboratories (Wolfenbüttel, Germany). Ultrapure urea was purchased from Schwarz-Mann (Cleveland, Ohio). Ready-to-use NuPAGE 10% Bis-Tris Polyacrylamide SDS-PAGE gels and NuPAGE 20×MOPS running buffer were obtained from Novex (Frankfurt/Main, Germany) 10% AMPA and all other chemicals were from Sigma (Deisenhofen, Germany). […]"}, "[2]": {"target": "T2, MMP-1 (Human Gingival Fibroblast Interstitial Collagenase) (Homo sapiens, UniProt P03956)", "T2 construct": "Jack Windsor (supplied, not bought)", "T2 sequence (P03956 100-469)": "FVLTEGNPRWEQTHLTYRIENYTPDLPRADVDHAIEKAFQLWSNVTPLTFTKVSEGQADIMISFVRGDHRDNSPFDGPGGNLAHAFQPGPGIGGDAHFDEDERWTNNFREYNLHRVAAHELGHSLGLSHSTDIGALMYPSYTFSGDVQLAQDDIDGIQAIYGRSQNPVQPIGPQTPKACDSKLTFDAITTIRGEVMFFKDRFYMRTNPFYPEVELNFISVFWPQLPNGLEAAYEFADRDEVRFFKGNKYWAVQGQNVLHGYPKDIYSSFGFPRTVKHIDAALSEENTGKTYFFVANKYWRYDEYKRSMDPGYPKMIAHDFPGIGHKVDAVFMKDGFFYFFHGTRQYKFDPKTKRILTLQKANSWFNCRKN", "test": "P218 quenched fluorescence assay, MMP-1", "format": "biochemical", "conditions": "read-out: Potency Ki vs. MMP-1", "description": "as §1\nas §2, with “Test compounds (10 mM in DMSO) are diluted in assay buffer at an initial concentration of 0.3-1000 nM. These are diluted to a final concentration in the assay from 0.03 nM to 100 nM. The reaction is initiated by the addition of substrate at a final concentration of 20 μM.” left out\nas §3, with “[I]0 is equal to IC50 when vi is half v0, so that: IC50=0.5×[E]0+Ki apparent” left out\nIC50's are determined at each enzyme concentration using Xlfit software. […]"}},
  "data": [
    {"smiles": "CCOc1ccc(-c2ccc(C(=O)CC(CCN3C(=O)c4ccccc4C3=O)C(=O)O)cc2)cc1", "note": "(single isomer, unassigned; (+)) [Example 2, (+)-2-[2-(1,3-Dioxo-1,3-dihydro-2H-isoindol-2-yl)ethyl]-4-(4′-ethoxy[1,1′-biphenyl]-4-yl)-4-oxobutanoic acid]", "values": [
      {"measurement": "Ki", "setting": "[1]", "result": 0.03, "unit": "nM"},
      {"measurement": "Ki", "setting": "[2]", "result": "> 3000", "unit": "nM"}
    ]},
    {"smiles": "O=C(CC(CCN1C(=O)c2ccccc2C1=O)C(=O)O)c1ccc(-c2ccc(Cl)cc2)cc1", "note": "(single isomer, unassigned; (+)) [Example 4, (+)-4-(4′-Chloro[1,1′-biphenyl]4-yl)-2-[2-(1,3-dioxo-1,3-dihydro-2H-isoindol-2-yl)ethyl]-4-oxobutanoic acid]", "values": [
      {"measurement": "Ki", "setting": "[1]", "result": 0.3, "unit": "nM"},
      {"measurement": "Ki", "setting": "[2]", "result": 639, "unit": "nM"}
    ]}
  ]
}
